Results published in ChEMBL document CHEMBL4819018, “Variously substituted 2-oxopyridine derivatives: Extending the structure-activity relationships for allosteric modulation of the cannabinoid CB2 receptor” (Eur J Med Chem, 2021).
The source made the active and inactive calls. The rule behind the calls is not given here.

How the values were obtained:
[1] = target: T1, Cannabinoid receptor 2 (Homo sapiens, UniProt P34972); experiment: Positive allosteric modulator activity at human CB2R expressed in CHO-K1 cells assessed as potentiation of CP55940-stimulated beta-arrestin2 recruitment measured after 90 mins by PathHunter assay relative to control; format: cell-based; conditions: filed as positive allosteric modulator
[2] = target: T1, Cannabinoid receptor 2; experiment: Positive allosteric modulator activity at human CB2R expressed in CHO-K1 cells assessed as potentiation of CP55940-stimulated inhibition of forskolin-induced cAMP accumulation measured after 90 mins by HitHunter cAMP assay relative to control; format: functional, cell-based; conditions: filed as positive allosteric modulator
[3] = target: T1, Cannabinoid receptor 2; experiment: Positive allosteric modulator activity at human CB2R expressed in CHO-K1 cells assessed as potentiation of CP55940-stimulated inhibition of forskolin-induced cAMP accumulation measured after 90 mins by HitHunter cAMP assay; format: functional, cell-based
[4] = target: T1, Cannabinoid receptor 2; experiment: Positive allosteric modulator activity at human CB2R expressed in CHO-K1 cells assessed as potentiation of CP55940-stimulated beta-arrestin2 recruitment measured after 90 mins by PathHunter assay; format: cell-based
[5] = target: T1, Cannabinoid receptor 2; experiment: Positive allosteric modulator activity at human CB2R expressed in CHO-K1 cell membrane assessed as increase in [3H]CP55940 binding at 100 nM measured after 60 mins by liquid scintillation spectrometry; format: cell membranes
[6] = target: Cannabinoid receptor 1 (Homo sapiens, UniProt P21554); experiment: Modulation of human CB1R expressed in CHO-K1 cell membrane assessed as effect on [3H]CP55940 binding at 0.001 to 10 uM measured after 60 mins by liquid scintillation spectrometry; format: cell membranes; conditions: cho-k1, 1 h, dose 0.001-10 µM
[7] = target: T1, Cannabinoid receptor 2; experiment: Positive allosteric modulator activity at human CB2R expressed in CHO-K1 cell membrane assessed as increase in [3H]CP55940 binding at 0.001 to 1 microM measured after 60 mins by liquid scintillation spectrometry; format: cell membranes; conditions: dose 0.001-1 µM
[8] = target: T1, Cannabinoid receptor 2; experiment: Positive allosteric modulator activity at human CB2R expressed in CHO-K1 cell membrane assessed as increase in [3H]CP55940 binding at 10 uM measured after 60 mins by liquid scintillation spectrometry; format: cell membranes
[9] = target: T1, Cannabinoid receptor 2; experiment: Positive allosteric modulator activity at human CB2R expressed in CHO-K1 cell membrane assessed as CP55940 Emax for [35S]GTPgammaS binding at 1 nM measured after 90 mins by liquid scintillation counting analysis (reference value: 57 +/-1.5%); format: functional, cell membranes; conditions: filed as positive allosteric modulator
[10] = target: T1, Cannabinoid receptor 2; experiment: Positive allosteric modulator activity at human CB2R expressed in CHO-K1 cell membrane assessed as CP55940 Emax for [35S]GTPgammaS binding at 100 nM measured after 90 mins by liquid scintillation counting analysis (reference value: 57 +/-1.5%); format: functional, cell membranes; conditions: filed as positive allosteric modulator
[11] = target: T1, Cannabinoid receptor 2; experiment: Inverse agonist activity at human CB2R expressed in CHO-K1 cell membrane assessed as decrease in [35S]GTPgammaS binding at 1 to 10 uM measured after 90 mins by liquid scintillation counting analysis; format: cell membranes; conditions: cho-k1, 1.5 h, dose 1-10 µM
[12] = target: T1, Cannabinoid receptor 2; experiment: Inhibition of [35S]GTPgammaS binding at human CB2R expressed in CHO-K1 cell membrane at 0.001 to 10 uM measured after 90 mins by liquid scintillation counting analysis; format: cell membranes; conditions: cho-k1, 1.5 h, dose 0.001-10 µM
[13] = target: T1, Cannabinoid receptor 2; experiment: Stimulation of [35S]GTPgammaS binding at human CB2R expressed in CHO-K1 cell membrane at 0.001 to 10 uM measured after 90 mins by liquid scintillation counting analysis; format: cell membranes; conditions: cho-k1, 1.5 h, dose 0.001-10 µM
[14] = filed as positive allosteric modulator

T1 sequence (P34972 whole entry): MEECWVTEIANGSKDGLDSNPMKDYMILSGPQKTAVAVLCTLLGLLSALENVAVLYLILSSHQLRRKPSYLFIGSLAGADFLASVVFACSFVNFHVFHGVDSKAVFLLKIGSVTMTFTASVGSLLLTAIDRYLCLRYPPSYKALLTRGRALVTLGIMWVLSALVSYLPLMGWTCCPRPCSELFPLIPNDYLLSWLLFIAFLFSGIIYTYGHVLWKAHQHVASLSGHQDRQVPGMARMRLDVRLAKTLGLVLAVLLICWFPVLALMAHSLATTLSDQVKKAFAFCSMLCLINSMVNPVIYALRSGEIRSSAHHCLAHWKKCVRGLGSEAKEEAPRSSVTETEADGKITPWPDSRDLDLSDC
Chain of Cannabinoid receptor 1 (P21554 whole entry): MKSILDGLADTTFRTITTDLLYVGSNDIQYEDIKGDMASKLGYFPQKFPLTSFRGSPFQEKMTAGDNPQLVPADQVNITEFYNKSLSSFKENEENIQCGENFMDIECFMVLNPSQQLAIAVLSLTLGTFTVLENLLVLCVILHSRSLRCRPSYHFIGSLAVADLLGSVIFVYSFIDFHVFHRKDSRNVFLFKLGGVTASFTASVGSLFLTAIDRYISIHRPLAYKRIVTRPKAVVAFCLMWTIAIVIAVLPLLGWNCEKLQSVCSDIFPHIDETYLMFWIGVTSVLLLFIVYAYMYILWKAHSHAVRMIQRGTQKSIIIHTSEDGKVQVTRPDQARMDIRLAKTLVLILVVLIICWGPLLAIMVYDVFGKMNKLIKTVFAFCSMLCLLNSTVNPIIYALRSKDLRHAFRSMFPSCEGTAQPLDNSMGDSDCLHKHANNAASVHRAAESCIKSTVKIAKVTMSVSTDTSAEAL

Work on `Cc1c(Br)cn(Cc2ccc(F)cc2)c(=O)c1NC(=O)C1CCCCCC1` yielded an Emax [1] of 79%, an Emax [2] of 91% and an EC50 [3] of 3.8 nM. It also gave an EC50 [4] of 17 nM.

With `CC(=O)Nc1c(C)c(Br)cn(Cc2ccc(F)cc2)c1=O` the Activity [5] was “inactive”.

`Cc1c(Br)cn(Cc2ccc(I)cc2)c(=O)c1NC(=O)C1CCCCCC1` was tested, and the Activity [5] was “inactive”.

With `Cc1c(Br)cn(Cc2ccccc2F)c(=O)c1NC(=O)C1CCCCCC1` the Activity [6] was “Not Active”, the Activity [7] was 20% and the Emax [1] was 51%. The Activity [8] was “inactive”, the Emax [2] was 120% and the EC50 [3] was over 10000 nM. For the same compound, the Emax [9] was 51%, the Activity [5, 14] was “Active” and the EC50 [4] was over 10000 nM. For the same compound, the Emax [10] was 72% and the Activity [11] was “Active”.

For `Cc1c(Br)cn(Cc2ccccc2Cl)c(=O)c1NC(=O)C1CCCCCC1`, the Activity [6] was “Not Active”, the Activity [7, 14] was 40% and the Emax [1] was 75%. The Activity [8] was “inactive”, the Emax [2] was 101% and the “inhibition (INH)” value [12] was “Not Active”. For the same compound, the Activity [13] was “Not Active”, the EC50 [3] was 15 nM and the Emax [9] was 73%. The Activity [5, 14] was “Active”, the EC50 [4] was 150 nM and the Emax [10] was 67%.

`Cc1c(Br)cn(Cc2ccc(F)cc2)c(=O)c1NC(=O)C1CCC(C)CC1` (centres undefined) was tested, and the Activity [5] was “inactive”.

For `Cc1c(Br)cn(Cc2ccc(F)cc2)c(=O)c1[N+](=O)[O-]`, the Activity [5] was “inactive”.

In the case of `Cc1c(Br)cn(Cc2ccc(Br)cc2)c(=O)c1NC(=O)C1CCCCCC1`, the Activity [8] is reported as “inactive” and the Activity [5, 14] is reported as “Active”.

For `Cc1c(Br)cn(Cc2ccccc2)c(=O)c1NC(=O)C1CCCCCC1`, the Activity [5] was “inactive”.

For `Cc1c(Br)cn(Cc2ccc(F)cc2)c(=O)c1NC(=O)OC1CCCCCC1`, the Activity [5] was “inactive”.

For `Cc1c(Br)cn(Cc2ccc(Cl)cc2)c(=O)c1NC(=O)C1CCCCCC1`, the Activity [5] was “inactive”.

`CCCCCn1cc(Br)c(C)c(NC(=O)C2CCCCCC2)c1=O` was tested, and the Activity [5] was “inactive”.

For `Cc1c(Br)cn(Cc2ccc(F)cc2)c(=O)c1N`, the Activity [5] was “inactive”.

`Cc1c(Br)cn(Cc2ccc(F)cc2)c(=O)c1NC(=O)c1ccccc1` was tested, and the Activity [5] was “inactive”.

With `CCCCCC(=O)Nc1c(C)c(Br)cn(Cc2ccc(F)cc2)c1=O` the Activity [5] was “inactive”.

With `Cc1c(Br)cn(CCCCCO)c(=O)c1NC(=O)C1CCCCCC1` the Activity [5] was “inactive”.

`Cc1c(Br)cn(Cc2cccc(F)c2)c(=O)c1NC(=O)C1CCCCCC1` was tested, and the Activity [5] was “inactive”.

`Cc1c(Br)cn(Cc2ccc(F)cc2)c(=O)c1NC(=O)NC1CCCCCC1` was tested, and the Activity [5] was “inactive”.

`Cc1c(Br)cn(CCN2CCOCC2)c(=O)c1NC(=O)C1CCCCCC1` was tested, and the Activity [5] was “inactive”.
